The results in this text go back to patent publication US20210330611A1, “THERAPY FOR NEUROLOGICAL DISEASES/DISORDERS” (priority 2020, published 2021).

Where a name gives a salt, the structure may show the parent alone.

For data set [1], the system named is fibrin- and LPS-induced microglia activation. As to the kind of experiment: cells. Format: cell-based, rat. The following applies: primary HTS, 10 μM.
Data set [2] concerns primary rat microglia. Put plainly: Cell toxicity (dead cells, size <150 μm2) in LPS assay. The following applies: primary HTS, 10 μM, LPS assay, dead cells size <150 μm2.
The subject of data set [3] is fibrin-induced microglia activation. As to the kind of experiment: Image-based assay of fibrin-induced microglia activation (HTS and dose response). It counts as cell-based, rat. The following applies: primary HTS, 10 μM, fibrin-stimulated primary microglia; for inhibition at 10 µM: Rattus norvegicus, Microglia, read-out: Fibrin % inhibition.
The subject of data set [4] is LPS-induced microglia activation. Put plainly: Image-based assay of LPS-induced microglia activation (HTS and dose response). It counts as cell-based, rat. The following applies: primary HTS, 10 μM, LPS-stimulated primary microglia; for inhibition at 10 µM: Rattus norvegicus, Microglia, read-out: LPS % inhibition.
The subject of data set [5] is primary rat microglia. As to the kind of experiment: Cell toxicity (dead cells, size <150 μm2) in coated fibrin (cFib) assay.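 Also: share of dead cells sized under 150 µm2 at 10 µM in fibrin-stimulated microglia HTS.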 The following applies: primary HTS, 10 μM, fibrin assay, dead cells size <150 μm2.

Usually inhibition stands for the relative decrease from the control value, in per cent. As for `CN(C)CCOC(c1ccc(Cl)cc1)c1ccccn1` (centres unmarked) [Carbinoxamine], in data set [1], the “Quadrant (FIG. 5b)” value is reported as “Q4”. In addition, the “LPS % cell toxicity” value with primary rat microglia [2] is 0%. Moreover, the inhibition at 10 µM is 6% in data set [3] and -3% in data set [4]. Further, the “Fibrin % cell toxicity” value in the data set on primary rat microglia [5] turned out to be 0%.
Take `NC(=O)N[C@@H](CCC(=O)O)C(=O)O` [Carglumic Acid]: the “Quadrant (FIG. 5b)” value in data set [1] was “Q4”. For the same compound, in the data set on primary rat microglia [2], the “LPS % cell toxicity” value came out at 0%. The inhibition at 10 µM in data set [3] amounted to 1%; in data set [4], 6%. For the same compound, the “Fibrin % cell toxicity” value in the data set with primary rat microglia [5] is reported as 1%.
As to `CCCC(C)(COC(N)=O)COC(=O)NC(C)C` (centres unmarked) [Carisoprodol], in data set [1], the “Quadrant (FIG. 5b)” value is on record as “Q4”. Moreover, the “LPS % cell toxicity” value in the data set with primary rat microglia [2] is reported as 0%. In addition, the inhibition at 10 µM in data set [3] is 1%; in data set [4] it was -1%. Also, the “Fibrin % cell toxicity” value with primary rat microglia [5] is reported as 0%.
Turning to `CCCCCCNC(=O)n1cc(F)c(=O)[nH]c1=O` [Carmofur], the “Quadrant (FIG. 5b)” value in data set [1] is “Q4”. In addition, the “LPS % cell toxicity” value with primary rat microglia [2] was found to be 0%. In addition, the values for the inhibition at 10 µM in data set [3] and in data set [4] were -13% and 17%, respectively. Also, the “Fibrin % cell toxicity” value in the data set with primary rat microglia [5] stood at 0%.
Consider `O=c1[nH]c(=O)c2ccccc2o1` [Carsalam], for which the “Quadrant (FIG. 5b)” value in data set [1] was “Q4”. The “LPS % cell toxicity” value in the data set with primary rat microglia [2] turned out to be 1%. Further, the inhibition at 10 µM in data set [3] was -7%; in data set [4] it was 11%. Further, the “Fibrin % cell toxicity” value with primary rat microglia [5] was 0%.
Taken in the same sequence, the figures for `CC(C)(C)NCC(O)COc1cccc2c1CCC(=O)N2` (centres unmarked) [Carteolol] were “Q4”, 0%, 12%, 7% and 0%.
Taken in the same sequence, the figures for `NS(=O)(=O)c1ccc(C(=O)O)cc1` [Carzenide] were “Q4”, 0%, -24%, 14% and 1%.
Taken in the same sequence, the figures for `N[C@@H](C(=O)N[C@@H]1C(=O)N2C(C(=O)O)=C(Cl)CS[C@H]12)c1ccccc1` [Cefaclor] were “Q4”, 0%, -14%, 19% and 1%.
In the case of `CC1=C(C(=O)O)N2C(=O)[C@@H](NC(=O)[C@H](N)c3ccc(O)cc3)[C@H]2SC1` [Cefadroxil], the “Quadrant (FIG. 5b)” value in data set [1] was “Q4”. Also, the “LPS % cell toxicity” value in the data set on primary rat microglia [2] stood at 0%. Moreover, the inhibition at 10 µM in data set [3] turned out to be 1%; in data set [4], 3%. The “Fibrin % cell toxicity” value in the data set with primary rat microglia [5] is recorded as 0%.
Consider `NC(=O)c1cc[n+](CC2=C(C(=O)[O-])N3C(=O)[C@@H](NC(=O)Cc4cccs4)[C@H]3SC2)cc1` [Cefalonium], for which the “Quadrant (FIG. 5b)” value in data set [1] is listed as “Q4”. Moreover, the “LPS % cell toxicity” value in the data set on primary rat microglia [2] was determined as 0%. The inhibition at 10 µM was 9% in data set [3] and 11% in data set [4]. For the same compound, the “Fibrin % cell toxicity” value with primary rat microglia [5] was 1%.
For `CC(=O)OCC1=C(C(=O)O)N2C(=O)[C@@H](NC(=O)Cc3cccs3)[C@H]2SC1` [Cefalotin] the same measures were “Q4”, 0%, 1%, 1% and 1%.
Turning to `Cn1nnnc1SCC1=C(C(=O)O)N2C(=O)[C@@H](NC(=O)[C@H](OC=O)c3ccccc3)[C@H]2SC1` [Cefamandole Nafate], in data set [1], the “Quadrant (FIG. 5b)” value was “Q4”. In addition, the “LPS % cell toxicity” value in the data set on primary rat microglia [2] turned out to be 0%. In addition, the results for the inhibition at 10 µM in data set [3] and in data set [4] were -3% and 12%, respectively. For the same compound, the “Fibrin % cell toxicity” value with primary rat microglia [5] stood at 0%.
On to `Cn1nnnc1SCC1=C(C(=O)O)N2C(=O)[C@@H](NC(=O)[C@H](O)c3ccccc3)[C@H]2SC1` [Cefamandole Sodium], for which the “Quadrant (FIG. 5b)” value in data set [1] is recorded as “Q4”. The “LPS % cell toxicity” value in the data set with primary rat microglia [2] is on record as 0%. Also, the inhibition at 10 µM in data set [3] was -12%; in data set [4] it was 16%. In the data set on primary rat microglia [5], the “Fibrin % cell toxicity” value turned out to be 1%.
Take `CC(=O)OCC1=C(C(=O)O)N2C(=O)[C@@H](NC(=O)CSc3ccncc3)[C@H]2SC1` [Cefapirin]: the “Quadrant (FIG. 5b)” value in data set [1] is reported as “Q4”. Also, the “LPS % cell toxicity” value in the data set with primary rat microglia [2] is 0%. Further, the inhibition at 10 µM in data set [3] was -26%; in data set [4], 7%. For the same compound, the “Fibrin % cell toxicity” value in the data set on primary rat microglia [5] is given as 0%.
With `Cc1nnc(SCC2=C(C(=O)O)N3C(=O)[C@@H](NC(=O)Cn4cnnn4)[C@H]3SC2)s1` [Cefazolin], the “Quadrant (FIG. 5b)” value in data set [1] is on record as “Q4”. Besides, the “LPS % cell toxicity” value with primary rat microglia [2] is 0%. The inhibition at 10 µM in data set [3] amounted to 0%; in data set [4], 11%. Also, the “Fibrin % cell toxicity” value with primary rat microglia [5] came out at 1%.
`C=CC1=C(C(=O)O)N2C(=O)[C@@H](NC(=O)/C(=N\O)c3csc(N)n3)[C@H]2SC1` [Cefdinir]: in data set [1], the “Quadrant (FIG. 5b)” value is on record as “Q4”. For the same compound, the “LPS % cell toxicity” value in the data set on primary rat microglia [2] came to 0%. Besides, the inhibition at 10 µM was -9% in data set [3] and 16% in data set [4]. In the data set with primary rat microglia [5], the “Fibrin % cell toxicity” value was 1%.
In the case of `CO/N=C(\C(=O)N[C@@H]1C(=O)N2C(C(=O)OCOC(=O)C(C)(C)C)=C(/C=C\c3scnc3C)CS[C@H]12)c1csc(N)n1` [Cefditorin Pivoxil], the “Quadrant (FIG. 5b)” value in data set [1] was “Q4”. Besides, the “LPS % cell toxicity” value in the data set on primary rat microglia [2] is 1%. Also, the Fibrin % inhibition in data set [3] stood at 2%. Also, the LPS % inhibition in data set [4] was determined as 21%. The “Fibrin % cell toxicity” value in the data set on primary rat microglia [5] was 1%.
For the compound `CO/N=C(\C(=O)N[C@@H]1C(=O)N2C(C(=O)O)=C(C[N+]3(C)CCCC3)CS[C@H]12)c1csc(N)n1` [Cefepime Hydrochloride], the “Quadrant (FIG. 5b)” value in data set [1] was “Q4”. Besides, the “LPS % cell toxicity” value in the data set with primary rat microglia [2] was 0%. For the same compound, the inhibition at 10 µM in data set [3] is 7%; in data set [4], 16%. In addition, the “Fibrin % cell toxicity” value in the data set with primary rat microglia [5] amounted to 1%.
In the case of `CO/N=C(\C(=O)N[C@@H]1C(=O)N2C(C(=O)[O-])=C(C[N+]3(C)CCCC3)CS[C@H]12)c1csc(N)n1` [Cefepime], in data set [1], the “Quadrant (FIG. 5b)” value was “Q4”. In addition, the “LPS % cell toxicity” value in the data set on primary rat microglia [2] was found to be 0%. Besides, the inhibition at 10 µM was -26% in data set [3] and 4% in data set [4]. Also, in the data set on primary rat microglia [5], the “Fibrin % cell toxicity” value turned out to be 1%.
Taken in the same sequence, the figures for `C=CC1=C(C(=O)O)N2C(=O)[C@@H](NC(=O)/C(=N\OCC(=O)O)c3csc(N)n3)[C@H]2SC1` [Cefixime] were “Q4”, 0%, 0%, -8% and 1%.
Taken in the same sequence, the figures for `CO/N=C(\C(=O)N[C@@H]1C(=O)N2C(C(=O)O)=C(CSc3nnnn3C)CS[C@H]12)c1csc(N)n1` [Cefmenoxime Hydrochloride] were “Q4”, 0%, -15%, 2% and 0%.
Taken in the same sequence, the figures for `CO[C@@]1(NC(=O)CSCC#N)C(=O)N2C(C(=O)O)=C(CSc3nnnn3C)CS[C@@H]21` [Cefmetazole] were “Q4”, 0%, -50%, 8% and 0%.
